Consider 4 molecules from publication PMC3758320, “Fate of Ingested Clostridium difficile Spores in Mice” (PLoS ONE, 2013).

Molecules are shown by their SMILES.

The nature of series [1]: Caco-2 permeability assay. The following applies: human, Caco-2. On the technique in general: Caco-2 monolayers are a common model of the intestinal barrier.
Series [2] concerns C. difficile spores. Kind of series: Prevention of CDI by bile salt analogs in mice challenged with C. difficile spores. Type of series: in vivo, C57BL/6N mice. The following applies: for CDI signs: mice challenged with 10^8 CFU C. difficile spores, three doses.
In series [3] the test system is mice. The following applies: mouse, in vivo, po.
Experimental: (§5) CamSA was dissolved in DMSO to a concentration of 100 mg/ml. […] A control group was administered DMSO.
Series [4] has as its system C. difficile spore germination. On the set-up: method as in PMID 21478359. The following applies: in vitro; read-out: IC50, inhibition of C. difficile spore germination; cited from earlier work.
A short description of series [5]: Stability in artificial gastric juice. Type of series: in vitro ADME. The following applies: 24 hours incubation, 37°C, TLC. How it is done: (§1) CamSA was analyzed for stability in simulated gastric and intestinal juices as published. Briefly, 100 mg CamSA was added to 1 ml of either artificial intestinal or artificial gastric juice and incubated at 37°C. Aliquots were taken at 4, 8, 12, and 24 hours. Samples (1 µl) were spotted on silica TLC plates and allowed to air dry. Plates were developed with 75% ethyl acetate/methanol. TLC plates were visualized by spraying with a 10% wt/vol phosphomolybdic acid (PMA)/ethanol solution followed by heating at 100°C for 2 minutes. Quantification of CamSA was determined using a GE Healthcare Typhoon 9410 Variable Mode Imager and analyzed using ImageQuant TL 5.2 software.

Series [6] in a line: Stability in artificial intestinal juice. Type of series: in vitro ADME. The following applies: 24 hours incubation, 37°C, TLC. How it is done: as §1
Series [7] can be described thus: Stability in growth medium alone. Type of series: in vitro ADME. The method, then:
Following previous procedures, Escherichia coli DH5α, Bifidobacterium longum (ATCC BAA-999) and Lactobacillus gasseri (ATCC 33323) were incubated for 24 hours at 37°C. […] Samples of spent media were taken at 4, 8, 12, and 24 hours. Bile salt concentration was monitored by TLC as above. Percent conjugated bile salts were derived by dividing the intensity of TLC spots obtained at different times by the intensity of the TLC spot obtained before incubation.

Series [8] concerns E. coli. Put plainly: Effect on bacterial growth (E. coli). Type of series: cell-based, E. coli DH5α. The following applies: 10 mM in growth medium, OD580 over 8 hours. The method, then: (§2) Laboratory strains of E. coli DH5α, B. longum, L. gasseri, and C. difficile were individually inoculated from freezer stock onto appropriate agar medium as directed by ATCC. Plates were incubated overnight at 37°C either aerobically (L. gasseri and E. coli) or anaerobically (C. difficile and B. longum). Anaerobic conditions consisted of a 5% CO2, 10% H2, and 85% N2 environment. Single cell clones were carefully selected and used to inoculate 5 mL of liquid medium. Inoculated broth was shaken at 37°C for approximately four hours until optical density at 580 nm reached 0.8 representing exponential phase of growth. […] An increase of optical density at 580 nm (OD580) was used to measure exponential bacterial growth. The OD580 was recorded at 0, 1, 2, 3, 4, 6, and 8 hours post subculture inoculation. Growth inhibition was determined by comparing optical density of bile salt-treated cultures with untreated control cultures.

Series [9] concerns B. longum. Type of series: cell-based.
For series [10], the system named is L. gasseri. Type of series: cell-based.
Another series has as its system C. difficile. Kind of series: Effect on bacterial growth (C. difficile vegetative cells). The following applies: 10 mM in growth medium, OD580 over 8 hours. Type of series: cell-based. How it is done: as §2
Series [11] has as its system Vero cells. Put plainly: Cytotoxicity in Vero cells. Type of series: cell-based. The following applies: overnight. How it is done: (§3) Vero cells, Caco-2 cells, and murine macrophages J774A.1 were seeded in complete medium (minimum essential medium (MEM), 10% fetal bovine serum (FBS), and 1% penicillin/streptomycin). Cells were grown at 37°C with 5% CO2. Cells were detached by incubation with 1 mM EDTA-trypsin for 5 minutes. Complete medium was then added and monolayers lifted with a cell scraper. Cells were recovered at 800×g for 5 minutes at room temperature and the cell pellet was resuspended in fresh complete medium. A sample of cell suspension was treated with trypan blue to determine background non-viable cells. […]
(§4) The 12-well plates containing cell cultures were used as a qualitative method to determine cytotoxicity by visual observation of morphological changes, such as cell rounding. Cell viability was also determined by trypan blue dye exclusion staining. The 96-well plates cultured with mammalian cells were used as a quantitative method to determine cytotoxicity using the CellTiter Glo Luminescent cell viability assay. This assay quantitates the concentration of ATP, which indicates metabolically active cells. […] Luminescence was read with an integration time of 1 second per well using a Tecan Infinite 200 plate reader and iControl software. The luminescence signals from cell cultures supplemented with DMSO only were set as 100% cell viability. […]

Another series deals with Caco-2 cells. Kind of series: Cytotoxicity in Caco-2 cells. Type of series: cell-based. The following applies: overnight. How it is done: as §3, §4
Series [12] concerns murine macrophages J774A.1. Kind of series: Cytotoxicity in murine macrophages J774A.1. Type of series: cell-based. The following applies: macrophage cells, overnight. The method, then: as §3, §4
The test system of series [13] is C. difficile spores. Put plainly: Outgrowth of C. difficile spores in germination medium. Type of series: cell-based, C. difficile strain 630. The following applies: 200 µM in medium, overnight.
In series [14] the test system is Vero cells. Kind of series: C. difficile toxin-induced cell death (spent media on Vero cells). Type of series: cell-based. The following applies: 200 µM; Vero cells exposed 24 hours. The method, then: C. difficile strain 630 spores were washed five times with nanopure water, heat activated at 68°C for 30 minutes and washed five more times with water. Spore pellets were resuspended in 0.1 M sodium phosphate buffer supplemented with 0.5% sodium bicarbonate (pH 6.0) to an OD580 of 1.0. […] Spore suspensions were incubated anaerobically at 37°C overnight. The following day, C. difficile cells and spores were removed by centrifugation and spent media filter sterilized. In parallel, Vero and Caco-2 cells were cultured in 96-well plates, as described above. The mammalian cell cultures were then exposed to varying concentrations of sterile spent media for 24 hours. Cell viability was determined as before with the CellTiter Glo viability kit. The luminescence signals from cell cultures supplemented with 0% spent media were set as 100% cell viability. Percent survival for other conditions was calculated relative to these untreated cells.

For series [15], the system named is C. difficile spores. Put plainly: Onset of CDI signs in mice (timing of dosage). Type of series: in vivo, C57BL/6N mice. How it is done: Antibiotic treated mice were challenged by oral gavage with 10^8 CFUs of C. difficile strain 630 spores. Individual groups of five mice were treated with a single 300 mg/kg dose of CamSA at 0, 6, 9 or 12 hours post-spore challenge. A second 300 mg/kg dose of CamSA was administered 24 hours after the first dose.

The test system of series [16] is C. difficile spores. Kind of series: Enumeration of C. difficile vegetative cells and spores in GI contents and feces of treated mice. Type of series: in vivo, C57BL/6N mice. How it is done: Cages from infected animals were changed and feces were collected at different time points. Selected animals were sacrificed at different time points and their GI tract observed for signs of disease. Gastrointestinal tracts were removed in blocks and GI tract contents were flushed with autoclaved water. Feces and intestinal contents were weighed and homogenized in autoclaved water. Aliquots of the fecal suspensions were heated to 68°C for 30 minutes. Heated and unheated feces and GI tract contents were serially diluted in water and plated on Clostridium difficile selective agar (CDSA). Plates were incubated anaerobically for 48 hours and colonies were counted to enumerate colony-forming units (CFUs). CFUs obtained from unheated samples represent the sum of C. difficile vegetative cells and spores. CFUs obtained from heated samples represent the number of C. difficile spores only. The presence of C. difficile was verified by PRO disk.

Series [17] has as its system C. difficile spores. On the set-up: method as in PMID 23420906. The following applies: single 50 mg/kg dose; without any observable toxicity; cited from earlier work.
The next series concerns Caco-2 cell monolayer. Put plainly: Caco-2 permeability assay.
The test system of series [18] is mice. Kind of series: Acute toxicity in mice (Fixed Dose Procedure). The following applies: oral gavage, three consecutive days, doses up to saturating 300 mg/kg.
Experimental: as §5
For series [19], the system named is E. coli. Kind of series: Stability after incubation with E. coli cultures. The following applies: 24 hour incubation.
For series [20], the system named is B. longum. Put plainly: Stability after incubation with BSH-producing bacteria (B. longum). The following applies: 24 hours, 6 mM bile salt.
Series [21] concerns L. gasseri. Put plainly: Stability after incubation with BSH-producing bacteria (L. gasseri). The following applies: 24 hours, 6 mM bile salt.
[22] abbreviates: 300 mg/kg given at 9 or 12 hours post-challenge.
Where [23] appears, read: Caco-2, 10 µM, 2 hour incubation.

Consider `CNC(=C[N+](=O)[O-])NCCSCc1ccc(CN(C)C)o1` [Ranitidine], for which, in [1], the Papp A→B at 2 h, 10 µM was 0.3 ×10⁻⁶ cm/s; the Papp at 2 h, 10 µM was less than 0.5 ×10⁻⁶ cm/s; the efflux ratio at 2 h, 10 µM came out at 5.3.

As to `C[C@H](CCC(=O)O)[C@H]1CC[C@H]2[C@@H]3[C@H](O)C[C@@H]4C[C@H](O)CC[C@]4(C)[C@H]3CC[C@]12C` [chenodeoxycholate], the “delay of CDI onset” value with C. difficile spores [2] (50 mg/kg) is 24 h. The CDI signs entry in the series with C. difficile spores [2] (50 mg/kg oral gavage) is “moderate to severe signs of CDI”. For the same molecule, the observable side effects result with mice [3] (50 mg/kg) is “did not cause any observable side effects”. For the same molecule, the acute toxicity outcome with mice [3] (300 mg/kg) was “immediate death”. Also, in series [4], the IC50 is 235 µM.

`C[C@H](CCC(=O)Nc1cccc(S(=O)(=O)O)c1)[C@H]1CC[C@H]2[C@@H]3[C@H](O)C[C@@H]4C[C@H](O)CC[C@]4(C)[C@H]3C[C@H](O)[C@]12C` [CamSA]: the CDI signs entry with C. difficile spores [2] (50 mg/kg oral gavage) is “no sign of CDI”. Also, the CDI signs entry in the series with C. difficile spores [2] (300 mg/kg oral gavage) is given as “no sign of CDI”. In addition, the “time without signs of CDI post-challenge” value with C. difficile spores [2] (treated, spore-challenged mice) is on record as no less than 14 days. In [5], the “degradation in artificial gastric juice” value is given as “No degradation”. In series [6], the “degradation in artificial intestinal juice” value was “No degradation”. Also, the “degradation in growth medium alone” value in series [7] is on record as “not degraded”. Also, in the series on E. coli [8], the “growth of E. coli” value is listed as “unaffected”. Besides, the “growth of B. longum” value with B. longum [9] is “unaffected”. In the series on L. gasseri [10], the “growth of L. gasseri” value is on record as “unaffected”. In addition, the “growth of C. difficile cells” value in the series with C. difficile was “grew normally”. Further, the “cell viability, visual observation and trypan blue staining” value (“cell viability” for short) with Vero cells [11] is listed as “appeared healthy”. For the same molecule, the “cell viability” value in the series with Caco-2 cells was “appeared healthy”. In addition, the “cell viability” value in [12] is “appeared healthy”. Moreover, the “bacterial growth from C. difficile spores” value in the series on C. difficile spores [13] was “reduced but not eliminated”. For the same molecule, in the series on Vero cells [14], the “cell killing by spent media from treated bacterial cultures” value is on record as “less effective at killing epithelial cells”. Besides, in the series with C. difficile spores [15] (setting [22]), the CDI outcome is given as “developed severe CDI” and the “time to clinical endpoint post infection” value is 48 h. In the series with C. difficile spores [15] (300 mg/kg given up to 6 hours post-challenge), the “protection from CDI” value was “fully protected from CDI”. Moreover, in the series with C. difficile spores [16] (mice treated with 50 mg/kg), the “C. difficile vegetative cells in feces compared to spore counts” value is reported as less than 10%. For the same molecule, the “C. difficile content of feces” value with C. difficile spores [16] (treated mice) was “almost exclusively spores”. Also, the “spores recovered from the cecum and colon” value in the series with C. difficile spores [16] (treated mice, before the decrease (up to 72 hours after spore challenge)) was “greater than 12×10^5 CFUs”. Besides, in the series with C. difficile spores [16] (treated mice, by 96 hours after spore challenge), the “spores recovered from the cecum and colon” value is “less than 2×10^5 CFUs”. In addition, in the series on C. difficile spores [16] (treated mice, feces), the “duration of excretion of ingested C. difficile spores post-challenge” value is “at least 96 hours” and the “start of excretion of ingested C. difficile spores post-challenge” value was 2 h. In the series with C. difficile spores [17], the “prevention of CDI in mice” value is recorded as “prevented CDI”. Moreover, in the series on Caco-2 cell monolayer (10 µM, two hours), the “Comment: efflux” value was “Efflux substrate” and the “Comment: permeability ranking” value was “Low (Low (Papp < 0.5))”. Besides, the “Efflux Ratio” value in the series with Caco-2 cell monolayer (10 µM, two hours, >2 indicates significant efflux activity) was greater than 2. Besides, in the series with Caco-2 cell monolayer (setting [23]), the “apical to basolateral apparent permeability coefficient (Papp)” value is < 10^−6 cm/s and the “basolateral to apical Papp” value is 10.9 ×10⁻⁶ cm/s. The recovery in the series on Caco-2 cell monolayer (both A→B and B→A assays) is recorded as 100%. The “physical adverse effects or weight loss” value in the series with mice [18] is “No physical adverse effects or weight loss”. The “stability in E. coli cultures” value with E. coli [19] is given as “stable”. Besides, the “hydrolysis to cholic acid by B. longum culture” value in the series with B. longum [20] is “hydrolyzed to cholic acid at similar rates”. Further, the “fraction hydrolyzed to cholic acid by L. gasseri culture” value in the series on L. gasseri [21] was “Less than 30%”.

For `CC(=O)CC(c1ccccc1)c1c(O)c2ccccc2oc1=O` (centres unmarked) [Warfarin], in series [1], the Papp A→B at 2 h, 10 µM came out at 42.9 ×10⁻⁶ cm/s; the Papp B→A at 2 h, 10 µM is 16 ×10⁻⁶ cm/s; the Papp at 2 h, 10 µM is greater than 5 ×10⁻⁶ cm/s; the efflux ratio at 2 h, 10 µM came out at 0.4.

As usually defined, the Papp A→B is how fast a substance crosses the layer from the apical side. By Papp is commonly meant the rate of passage across a membrane or cell layer, normalised by area and donor concentration. A low value points to poor permeation. By efflux ratio is commonly meant a quotient of directional permeabilities that is used to spot active efflux. As a reminder, the IC50 is the concentration needed to halve the response being measured. Broadly, the Papp B→A is how fast a substance crosses the layer from the basolateral side.
